System: α-Glucosidase enzyme (from Saccharomyces cerevisiae)
Assay: α-glucosidase inhibitory assay (p-NPG substrate, spectrophotometric)
Type: biochemical
Conditions: mean SD (n = 3); for Inhibition (%): tested concentration of all samples 100 μM; for IC50: α-glucosidase, p-NPG substrate
Description: A total of 200 μL of reaction mixture, containing 70 μL of 0.1 M phosphate buffer (pH 6.8), 10 μL of 1.0 mg/mL reduced glutathione solution, and 10 μL of the sample solution (test concentration at 0.1 mg/mL), was added to each well of a 96-well plate, followed by the addition of 20 μL of 0.5 U/mL α-glucosidase solution. The plate was incubated at 37 °C for 15 min, and then 20 μL of p-Nitrophenyl α-D-glucopyranoside substrate was added to the mixture to start the reaction. The reaction mixture was incubated at 37 °C for 30 min, and then 70 μL of 0.1 M Na2CO3 solution was added to the mixture to terminate the reaction. All samples were analyzed in triplicate with three different concentrations near the IC50 values. The absorbance (A) was immediately recorded at 400 nm, using a spectrophotometrical method to estimate the enzymatic activity. The inhibition percentage was calculated by the following equation: Inhibitory rate (%) = [1 − (Atest − Ablank)/(control Atest − control Ablank)] × 100%.
Here, Atest represents the absorbance value of the experimental sample, Ablank represents the absorbance value of sample blank, control Atest represents the absorbance value of the control, and control Ablank represents the absorbance value of the blank.

SMILES: C[C@@H]1C=C[C@H](O)[C@]2(C)CC[C@]3(C)[C@H](CCC4[C@@]5(C)CC[C@H](O)C(C)(C)C5CC[C@]43C)C12 (stereo partly drawn) [Compound 3, 30-nor-3β,22α-dihydroxy-20-taraxastene]
- Inhibition (%): 70.34 ± 2.73%
- IC50: 44.6 ± 1.39 µM

SMILES: CC1=CC(O)C2(C)CCC3(C)C(CCC4C5(C)CCC(O)C(C)(C)C5CCC43C)C2C1C (stereo not drawn) [Compound 4, 3β,22α-dihydroxy-20-taraxastene]
- Inhibition (%): 94.95 ± 1.67%
- IC50: 17.5 ± 1.42 µM

SMILES: CC1C(COO)=CCC2(C)CCC3(C)C(CCC4C5(C)CCC(O)C(C)(C)C5CCC43C)C12 (stereo not drawn) [Compound 1, 3β-hydroxy-30-hydroperoxy-20-taraxastene]
- Inhibition (%): 99.46 ± 1.04%
- IC50: 18.3 ± 1.27 µM

SMILES: CC1=CC(=O)[C@]2(C)CC[C@]3(C)[C@H](CCC4[C@@]5(C)CCC(=O)C(C)(C)C5CC[C@]43C)C2[C@@H]1C (some centres unmarked) [Compound 5, 20-taraxastene-3,22-dione]
- Inhibition (%): 60.78 ± 5.81%
- IC50: 68.9 ± 1.82 µM

SMILES: C[C@@H]1C=CC[C@]2(C)CC[C@]3(C)[C@H](CCC4[C@@]5(C)CC[C@H](O)C(C)(C)C5CC[C@]43C)C12 (stereo partly drawn) [Compound 8, 30-nor-3β-hydroxy-20-taraxastene]
- Inhibition (%): 59.19 ± 3.81%
- IC50: 80.1 ± 2.13 µM

SMILES: CC(=O)O[C@H]1CC[C@@]2(C)C(CC[C@]3(C)C2CC[C@@H]2C4[C@H](C)C(C)=CC(=O)[C@]4(C)CC[C@]23C)C1(C)C (stereo partly drawn) [Compound 6, 3β-acetoxy-20-taraxasten-22-one]
- Inhibition (%): 63.06 ± 7.44%
- IC50: 54.2 ± 2.25 µM

SMILES: C[C@H]1O[C@H](O[C@H]2[C@H](O)[C@@H](O)[C@@H](O[C@H]3[C@H](O)[C@@H](O)C(O)O[C@@H]3CO)O[C@@H]2CO)[C@H](O)[C@@H](O)[C@@H]1N[C@H]1C=C(CO)[C@@H](O)[C@H](O)[C@H]1O (some centres unmarked) [Acarbose, acarbose, reference compound]
- Inhibition (%): 78.35 ± 3.41%

SMILES: CC1=CC(=O)C2(C)CCC3(C)C(CCC4C5(C)CCC(O)C(C)(C)C5CCC43C)C2C1C (stereo not drawn) [Compound 7, 3β-hydroxy-20-taraxasten-22-one]
- Inhibition (%): 95.59 ± 2.34%
- IC50: 22.7 ± 0.25 µM

SMILES: COC1C=C(C)C(C)C2C3CCC4C5(C)CCC(O)C(C)(C)C5CCC4(C)C3(C)CCC12C (stereo not drawn) [Compound 2, 3β-hydroxy-22α-methoxy-20-taraxastene]
- Inhibition (%): 93.29 ± 0.74%
- IC50: 27 ± 0.89 µM

Source: article PMC6571863, “Bioassay-Guided Isolation of Triterpenoids as α-Glucosidase Inhibitors from Cirsium setosum” (Molecules, 2019)
